In patent US8674136B2, “Aromatic butan-2-ol compounds and preparation and uses thereof” (Institute of Pharmacology and Toxicology Academy of …, priority 2010, dated 2014):
In brackets after ≈: the same amount, converted by molar mass.

These molecules were tested on Standard Strain H37Rv of mycobacterium tuberculosis (assay: MIC against standard strain H37Rv by Microplate Alamar Blue Assay (MABA)). Conditions: M. tuberculosis H37Rv, 7H9 medium, 37° C.
Format: cell-based
`COc1cc2ccc(Br)cc2cc1C(c1ccc(Cl)cc1)C(O)(CCN(C)C)c1cccc2ccccc12` (single isomer, unassigned) [Compound 3, 1-(4-chlorophenyl)-2-(1-naphthyl)-1-[2-(7-bromo-3-methoxy)naphthyl]-4-(N,N-dimethylamino)-butan-2-ol] showed an MIC of 2.883 µg/mL (≈ 4.89 µM).
For `COc1cc2ccccc2cc1C(c1ccc(Cl)cc1)C(O)(CCN(C)C)c1cccc2ccccc12` (single isomer, unassigned) [Compound 5, 1-(4-chlorophenyl)-2-(1-naphthyl)-1-[2-(3-methoxy)naphthyl]-4-(N,N-dimethylamino)-butan-2-ol], the MIC was 3.052 µg/mL (≈ 5.98 µM).
`COc1cc2ccccc2cc1C(c1ccc(Cl)cc1)C(O)(CCN(C)C)c1cccc2ccccc12` (single isomer, unassigned) [Compound 6, 1-(4-chlorophenyl)-2-(1-naphthyl)-1-[2-(3-methoxy)naphthyl]-4-(N,N-dimethylamino)-butan-2-ol] was tested, and the MIC was 1.454 µg/mL (≈ 2.85 µM).
`COc1cc2ccccc2cc1C(c1ccccc1)C(O)(CCN(C)C)c1cccc2ccccc12` (stereo not shown) [Compound 2, 1-phenyl-2-(1-naphthyl)-1-[2-(3-methoxy)-naphthyl]-4-(N,N-dimethylamino)-butan-2-ol] showed an MIC of 3.178 µg/mL (≈ 6.68 µM).
For `COc1cc2ccc(Br)cc2cc1C(c1ccc(Cl)cc1)C(O)(CCN(C)C)c1ccc(Br)cc1` (stereo not shown) [Compound 8, 1-(4-chlorophenyl)-2-(4-bromophenyl)-1-[2-(7-bromo-3-methoxy)naphthyl]-4-(N,N-dimethylamino)-butan-2-ol], the MIC was 0.956 µg/mL (≈ 1.55 µM).
`COc1cc2ccc(Br)cc2cc1C(c1ccccc1)C(O)(CCN(C)C)c1ccc(Br)cc1` (stereo not shown) [Compound 9, 1-phenyl-2-(4-bromophenyl)-1-[2-(7-bromo-3-methoxy)naphthyl]-4-(N,N-dimethylamino)-butan-2-ol] showed an MIC of 0.118 µg/mL (≈ 0.202 µM).
In the case of `COc1cc2ccc(Br)cc2cc1C(c1ccccc1)C(O)(CCN(C)C)c1ccc(Br)cc1` (stereo not shown) [Compound 10, 1-phenyl-2-(4-bromophenyl)-1-[2-(7-bromo-3-methoxy)naphthyl]-4-(N,N-dimethylamino)-butan-2-ol], the MIC is reported as 2.000 µg/mL (≈ 3.43 µM).
With `COc1cc2ccc(Br)cc2cc1C(c1ccccc1)C(O)(CCN(C)C)c1cccc(Br)c1` (stereo not shown) [Compound 11, 1-phenyl-2-(3-bromophenyl)-1-[2-(7-bromo-3-methoxy)naphthyl]-4-(N,N-dimethylamino)-butan-2-ol] the MIC was 0.103 µg/mL (≈ 0.177 µM).
For `COc1cc2ccc(Br)cc2cc1C(c1ccccc1)C(O)(CCN(C)C)c1cccc(Br)c1` (stereo not shown) [Compound 12, 1-phenyl-2-(3-bromophenyl)-1-[2-(7-bromo-3-methoxy)naphthyl]-4-(N,N-dimethylamino)-butan-2-ol], the MIC was 1.000 µg/mL (≈ 1.71 µM).
Molecule `COc1cc2ccc(Br)cc2cc1C(c1ccc(Cl)cc1)C(O)(CCN(C)C)c1cccc(Br)c1` (stereo not shown) [Compound 15, 1-(4-chlorophenyl)-2-(3-bromophenyl)-1-[2-(7-bromo-3-methoxy)naphthyl]-4-(N,N-dimethylamino)-butan-2-ol] has an MIC of 2.166 µg/mL (≈ 3.51 µM).
`COc1cc2ccc(Br)cc2cc1C(c1ccc(Cl)cc1)C(O)(CCN(C)C)c1ccccc1` (stereo not shown) [Compound 17, 1-(4-chlorophenyl)-2-phenyl-1-[2-(7-bromo-3-methoxy)naphthyl]-4-(N,N-dimethylamino)-butan-2-ol] gave an MIC of 2.000 µg/mL (≈ 3.71 µM).
In the case of `COc1cc2ccc(Br)cc2cc1C(c1ccc(Cl)cc1)C(O)(CCN(C)C)c1ccccc1` (stereo not shown) [Compound 18, 1-(4-chlorophenyl)-2-phenyl-1-[2-(7-bromo-3-methoxy)naphthyl]-4-(N,N-dimethylamino)-butan-2-ol], the MIC is reported as 0.109 µg/mL (≈ 0.202 µM).
`COc1cc2ccc(Br)cc2cc1C(c1ccccc1)C(O)(CCN(C)C)c1ccccc1` (stereo not shown) [Compound 19, 1,2-diphenyl-1-[2-(7-bromo-3-methoxy)naphthyl]-4-(N,N-dimethylamino)-butan-2-ol] was tested, and the MIC was 0.206 µg/mL (≈ 0.408 µM).
For `COc1cc2ccc(Br)cc2cc1C(c1ccccc1)C(O)(CCN(C)C)c1ccccc1` (stereo not shown) [Compound 20, 1,2-diphenyl-1-[2-(7-bromo-3-methoxy)naphthyl]-4-(N,N-dimethylamino)-butan-2-ol], the MIC was 2.000 µg/mL (≈ 3.96 µM).
Molecule `COc1cc2ccc(Br)cc2cc1C(c1ccc(Cl)cc1)C(O)(CCN(C)C)c1ccccc1Br` (stereo not shown) [Compound 21, 1-(4-chlorophenyl)-2-(2-bromophenyl)-1-[2-(7-bromo-3-methoxy)naphthyl]-4-(N,N-dimethylamino)-butan-2-ol] has an MIC of 2.000 µg/mL (≈ 3.24 µM).
`COc1cc2ccc(Br)cc2cc1C(c1ccc(Cl)cc1)C(O)(CCN(C)C)c1ccccc1Br` (stereo not shown) [Compound 22, 1-(4-chlorophenyl)-2-(2-bromophenyl)-1-[2-(7-bromo-3-methoxy)naphthyl]-4-(N,N-dimethylamino)-butan-2-ol] gave an MIC of 0.111 µg/mL (≈ 0.18 µM).
In the case of `COc1cc2ccc(Br)cc2cc1C(c1ccccc1)C(O)(CCN(C)C)c1ccccc1Br` (stereo not shown) [Compound 23, 1-phenyl-2-(2-bromophenyl)-1-[2-(7-bromo-3-methoxy)naphthyl]-4-(N,N-dimethylamino)-butan-2-ol], the MIC is reported as over 32 µg/mL.
`COc1cc2ccc(Br)cc2cc1C(c1ccccc1)C(O)(CCN(C)C)c1ccccc1Br` (stereo not shown) [Compound 24, 1-phenyl-2-(2-bromophenyl)-1-[2-(7-bromo-3-methoxy)naphthyl]-4-(N,N-dimethylamino)-butan-2-ol] was tested, and the MIC was 0.224 µg/mL (≈ 0.384 µM).
In the case of `COc1cc2ccc(Br)cc2cc1C(c1ccccc1)C(O)(CCN(C)C)c1cccc2ccccc12` (stereo not shown) [Compound 26, 1-phenyl-2-(1-naphthyl)-1-[2-(7-bromo-3-methoxy)naphthyl]-4-(N,N-dimethylamino)-butan-2-ol], the MIC is reported as 1.977 µg/mL (≈ 3.57 µM).
`COc1cc2ccc(Br)cc2cc1C(c1ccc(C)cc1)C(O)(CCN(C)C)c1cccc2ccccc12` (stereo not shown) [Compound 29, 1-(4-methylphenyl)-2-(1-naphthyl)-1-[2-(7-bromo-3-methoxy)naphthyl]-4-(N,N-dimethylamino)-butan-2-ol] gave an MIC of 0.222 µg/mL (≈ 0.39 µM).
With `COc1c(C(c2ccccc2)C(O)(CCN(C)C)c2cccc3ccccc23)cc2cc(Br)ccc2c1Br` (stereo not shown) [Compound 31, 1-phenyl-2-(1-naphthyl)-1-[2-(4,7-dibromo-3-methoxy)naphthyl]-4-(N,N-dimethylamino)-butan-2-ol] the MIC was 0.124 µg/mL (≈ 0.196 µM).
Molecule `COc1c(C(c2ccccc2)C(O)(CCN(C)C)c2cccc3ccccc23)cc2cc(Br)ccc2c1Br` (stereo not shown) [Compound 32, 1-phenyl-2-(1-naphthyl)-1-[2-(4,7-dibromo-3-methoxy)naphthyl]-4-(N,N-dimethylamino)-butan-2-ol] has an MIC of 1.000 µg/mL (≈ 1.58 µM).

Same assay, conditions: Mycobacterium tuberculosis, H37RV, M. tuberculosis H37Rv, 7H9 medium, 37° C., read-out: MIC
For `COc1cc2ccccc2cc1C(c1ccccc1)C(O)(CCN(C)C)c1cccc2ccccc12` (stereo not shown) [Compound 1, 1-phenyl-2-(1-naphthyl)-1-[2-(3-methoxy)-naphthyl]-4-(N,N-dimethylamino)-butan-2-ol], the MIC was 2.05 µg/mL (≈ 4.3 µM).
`COc1cc2ccc(Br)cc2cc1C(c1ccc(Cl)cc1)C(O)(CCN(C)C)c1ccc(Br)cc1` (stereo not shown) [Compound 7, 1-(4-chlorophenyl)-2-(4-bromophenyl)-1-[2-(7-bromo-3-methoxy)naphthyl]-4-(N,N-dimethylamino)-butan-2-ol] showed an MIC of 1 µg/mL (≈ 1.62 µM).
Molecule `COc1cc2ccccc2cc1C(c1ccc(Cl)cc1)C(O)(CCN(C)C)c1ccc(F)cc1F` (stereo not shown) [Compound 13, 1-(4-chlorophenyl)-2-(2,4-difluorophenyl)-1-[2-(3-methoxy)naphthyl]-4-(N,N-dimethylamino)-butan-2-ol] has an MIC of 1 µg/mL (≈ 2.02 µM).
